# Patent publication US20240092774A1, “HETEROAROMATIC COMPOUNDS AND USES THEREOF” (HUTCHISON MEDIPHARMA LIMITED, priority 2020, published 2024)
# Read-outs that look alike come from different tables or passages of the source.
# Tests used:
# [1] = target: Recombinant human CSF1R kinase (Homo sapiens (Human), UniProt P07333); experiment: Measurement of CSF1R kinase activity at molecular level (Z-LYTE); assay type: biochemical; details: Z-LYTE Tyr 1 peptide
# Method: Invitrogen, PV3227; • Development reagent B: Invitrogen, PV3295; • Development buffer: Invitrogen. P3127; • Stopping solution: Invitrogen, P3094; • Recombinant human CSF1R kinase: Invitrogen, P[…]; • 384 well plate, black: Corning. 3575; • Envision: Perkin Elmer. 2. […] The test compound was diluted in gradient to 4-fold the reaction concentration and the concentration of DMSO was kept at 8%. […] The mixture was mixed gently with a pipette. • 4) A phosphorylated peptide substrate solution (PP solution): 0.4 μL of Z-LYTETM Tyr1 phosphorylated peptide substrate was added to 99.6 μl of 1.33× kinase buffer. • 5) ATP solution: 10 mM of ATP was diluted to 760 μM with 1.33× kinase buffer to prepare ATP solution. • 6) Development solution: Development reagent B was diluted with Development buffer at a ratio of 1:200. 3. […] 2.5 μL of 4× test compound was added to each reaction well of the 384 plate, and the corresponding volume of 8% DMSO was added to the control well. The plate was placed on ice. […] After adding the reaction components, the 384-well plate was sealed and incubated at 25-30° C. for 1 h in dark. 2) Development Reaction 5 μL of Development solution was added to each well, sealed and incubated at 25-30° C. for another 1 h in dark. 3) Reaction Stopping and Plate Reading 5 μL of stopping solution was added to each well. The Coumarin value (excitation at 400 nm, emission at 445 nm) and Fluorescein value (excitation at 400 nm, emission at 520 nm) were measured, respectively. 4. […] Coumarin emission read-out (445 nm)/Fluorescein emission read-out (520 nm); • C3 445 nm: 100% phosphorylated Coumarin emission read-out; • C3 520 nm: 100% phosphorylated Fluorescein emission read-out; • C1 445 nm: 0% phosphorylated Coumarin emission read-out; • C1 520 nm: 0% phosphorylated Fluorescein emission read-out. […] 5. IC50 values: calculated by using software XL-FitTM (version 5.3) supplied by ID Business Solutions (Guildford, UK), which is an additional software to Microsoft Excel.
# [2] = target: CSF1R phosphorylation in THP-1 cells (Homo sapiens (Human), UniProt P07333); experiment: Detection of CSF1R phosphorylation activity at cell level (p-CSF1R ELISA, M-CSF stimulated THP-1 cells); assay type: cell-based
# Method: THP-1 (ATCC), human acute monocytic leukemia cells.
# 3. Treatment of cells and preparation of lysis buffer
# 5 μL. of the diluted compound was added to the 50 μL cell culture system, the culture was cultured in a 5% CO2, 37° C. cell incubator for 60 min, 300 ng/mL of M-CSF was added to the cells, and the mixture was stimulated in the 37° C. cell incubator for 1 min, added 50 μL of cell lysis buffer, and stored in a refrigerator at −80° C.
# 100 μL/well of the p-CSF1R capture antibody diluted to 0.8 μg/mL with PBS was added to the ELISA plate, and the plate was coated on a shaker at room temperature overnight. The culture was washed with PBST, and then added blocking solution and incubated at room temperature for 2 h. The culture was washed with PBST, added 90 μL of cell lysis buffer, and incubated on a shaker at 25° C. for 2 h. The plate was washed with PBST three times, added 100 μL of anti-p-tyrosine-HRP detection antibody diluted with 0.1% PBS-BSA diluent, and incubated on a shaker at 25° C. for 2 h. The plate was washed with PBST washing liquid, added 100 μL of chromogenic substrate and incubated at room temperature for 10-20 min. The reaction was stopped by adding 50 μL of 2N H2SO4. The optical density signal (450/570 nm) of each well was detected in Labsystems Multiskan K3 or Envision.
# wherein • Drug-treated well read-out: indicating the optical density signal of a cell well with the test compound treatment. • Background read-out: indicating the optical density signal of a well without cells but with cell lysis buffer. • Cell well read-out: indicating the optical density signal of a cell well not treated with the compound.
# 6. Calculation of IC50: obtained by using XL-Fit 5.3 software, […]
# [3] = THP-1 cells, M-CSF stimulation, p-CSF1R ELISA, read-out: IC50
# Sequence of CSF1R phosphorylation in THP-1 cells (P07333 20-972): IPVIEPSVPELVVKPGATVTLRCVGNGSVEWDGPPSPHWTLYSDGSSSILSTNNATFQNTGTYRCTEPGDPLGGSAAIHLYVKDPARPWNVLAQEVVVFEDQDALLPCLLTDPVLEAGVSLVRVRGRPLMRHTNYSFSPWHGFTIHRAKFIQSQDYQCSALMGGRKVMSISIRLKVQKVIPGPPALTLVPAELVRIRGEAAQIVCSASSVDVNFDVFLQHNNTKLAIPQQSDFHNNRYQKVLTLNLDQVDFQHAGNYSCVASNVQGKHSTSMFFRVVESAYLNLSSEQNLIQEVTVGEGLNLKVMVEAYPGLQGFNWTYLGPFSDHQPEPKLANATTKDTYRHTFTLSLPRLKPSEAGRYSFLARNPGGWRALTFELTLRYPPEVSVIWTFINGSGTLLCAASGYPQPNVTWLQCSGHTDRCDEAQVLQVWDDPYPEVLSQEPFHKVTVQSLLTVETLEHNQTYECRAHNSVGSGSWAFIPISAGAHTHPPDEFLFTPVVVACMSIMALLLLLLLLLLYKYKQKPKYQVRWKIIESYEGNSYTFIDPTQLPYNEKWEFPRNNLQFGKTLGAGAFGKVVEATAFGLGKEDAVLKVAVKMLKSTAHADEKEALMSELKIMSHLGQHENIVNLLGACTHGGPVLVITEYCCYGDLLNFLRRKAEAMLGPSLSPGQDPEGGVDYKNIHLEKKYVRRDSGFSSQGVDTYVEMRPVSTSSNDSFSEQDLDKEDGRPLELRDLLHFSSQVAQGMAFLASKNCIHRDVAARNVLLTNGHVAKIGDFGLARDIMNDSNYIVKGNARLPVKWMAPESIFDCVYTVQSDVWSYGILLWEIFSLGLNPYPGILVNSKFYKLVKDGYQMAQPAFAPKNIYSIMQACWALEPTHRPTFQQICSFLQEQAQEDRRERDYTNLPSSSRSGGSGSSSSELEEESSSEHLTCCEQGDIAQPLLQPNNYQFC
# Sequence of Recombinant human CSF1R kinase (P07333 20-972): as above
IC50 [1] [nM],"IC50 [2, 3] [µM]",SMILES,IC50 ([2]; IC50 (μM)) [µM]
5,0.005,"Cn1cc(-c2cc(Oc3cnc4c(c3)OCC(c3ccc(C5CC5)cc3)O4)ccn2)cn1 (racemic) [Compound 48, (R/S)-3-(4-cyclopropylphenyl)-7-((2-(1-methyl-1H-pyrazol-4-yl)pyridin-4-yl)oxy)-2,3-dihydro-[1,4]dioxino[2,3-b]pyridine]",–
8,0.006,"Cn1cc(-c2cc(Oc3cnc4c(c3)OCC(c3ccc(C5CC5)cc3)O4)ccn2)cn1 (racemic) [Compound 51, (R/S)-3-(4-cyclopropylphenyl)-7-((2-(1-methyl-1H-pyrazol-4-yl)pyridin-4-yl)oxy)-2,3-dihydro-[1,4]dioxino[2,3-b]pyridine]",–
3,0.019,"Cn1cc(-c2cc(Oc3cnc4c(c3)OCC(c3ccc(C5CC5)nc3)O4)ccn2)cn1 (racemic) [Compound 53, (R/S)-3-(6-cyclopropylpyridin-3-yl)-7-((2-(1-methyl-1H-pyrazol-4-yl)pyridin-4-yl)oxy)-2,3-dihydro-[1,4]dioxino[2,3-b]pyridine]",–
2,0.022,"Cn1cc(-c2cc(Oc3cnc4c(c3)OCC(c3ccc(C5CC5)nc3)O4)ccn2)cn1 (racemic) [Compound 54, (R/S)-3-(6-cyclopropylpyridin-3-yl)-7-((2-(1-methyl-1H-pyrazol-4-yl)pyridin-4-yl)oxy)-2,3-dihydro-[1,4]dioxino[2,3-b]pyridine]",–
8,0.007,"O=c1ccnc2ccc(Oc3cnc4c(c3)OCC(c3ccc(C5CC5)cc3)O4)cn12 (racemic) [Compound 55, (R/S)-7-((3-(4-cyclopropylphenyl)-2,3-dihydro-[1,4]dioxino[2,3-b]pyridin-7-yl)oxy)-4H-pyrido[1,2-a]pyrimidin-4-one]",–
12,0.014,"O=c1ccnc2ccc(Oc3cnc4c(c3)OCC(c3ccc(C5CC5)cc3)O4)cn12 (racemic) [Compound 56, (R/S)-7-((3-(4-cyclopropylphenyl)-2,3-dihydro-[1,4]dioxino[2,3-b]pyridin-7-yl)oxy)-4H-pyrido[1,2-a]pyrimidin-4-one]",–
23,0.06,"Cn1cc(-c2cc(Oc3cnc4c(c3)O[C@H](c3ccc(C5CC5)cc3)CO4)ccn2)cn1 (single isomer, unassigned) [Compound 49, (R/S)-2-(4-cyclopropylphenyl)-7-((2-(1-methyl-1H-pyrazol-4-yl)pyridin-4-yl)oxy)-2,3-dihydro-[1,4]dioxino[2,3-b]pyridine]",–
73,0.197,"Cn1cc(-c2cc(Oc3cnc4c(c3)O[C@H](c3ccc(C5CC5)cc3)CO4)ccn2)cn1 (single isomer, unassigned) [Compound 50, (R/S)-2-(4-cyclopropylphenyl)-7-((2-(1-methyl-1H-pyrazol-4-yl)pyridin-4-yl)oxy)-2,3-dihydro-[1,4]dioxino[2,3-b]pyridine]",–
81,–,Cc1cnc2ccc(Oc3ccc(OCc4ccc(F)cc4)nc3)cn2c1=O [Compound 3],–
129,–,Cc1cnc2ccc(Oc3ccc(OCc4ccc(F)c(Cl)c4)nc3)cn2c1=O [Compound 4],–
7,0.004,COc1ccc(COc2ncc(Oc3ccc4ncc(C)c(=O)n4c3)cc2OC)cc1 [Compound 6],–
15,–,C#Cc1ccc(COc2ncc(Oc3ccc4ncc(C)c(=O)n4c3)cc2OC)cc1 [Compound 7],–
67,0.029,COc1cc(Oc2ccc3ncc(C)c(=O)n3c2)cnc1OCc1ccc(C(C)C)cc1 [Compound 8],–
63,0.006,COc1cc(Oc2ccc3ncc(C)c(=O)n3c2)cnc1OCc1ccc(C2CC2)c(F)c1 [Compound 9],–
44,0.08,COc1cc(Oc2ccc3ncc(C)c(=O)n3c2)cnc1OCc1cccc(C(C)(C)C#N)c1 [Compound 10],–
61,0.164,COc1cc(Oc2ccc3ncc(C)c(=O)n3c2)cnc1OCc1ccc(C2CC2)cc1F [Compound 11],–
13,0.005,COc1cc(Oc2ccnc(-c3cnn(C)c3)c2)cnc1OCc1ccc(C2CC2)cc1 [Compound 12],–
8,0.017,COc1cc(Oc2ccc3ncc(C)c(=O)n3c2)cnc1OCc1ccc(C2CC2F)cc1 (stereo not drawn) [Compound 13],–
28,0.048,Cc1cnc2ccc(Oc3cnc(OCc4ccc(C5CC5)cc4)c(OCF)c3)cn2c1=O [Compound 14],–

IC50 [1] [nM],"IC50 [2, 3] [µM]",SMILES,IC50 ([2]; IC50 (μM)) [µM]
10,0.015,COc1cc(Oc2ccc3ncc(C)c(=O)n3c2)cnc1OCc1ccc(C2CC2(F)F)cc1 (stereo not drawn) [Compound 15],–
22,0.005,COc1cc(Oc2ccc3ncn(C)c(=O)c3c2)cnc1OCc1ccc(C2CC2)cc1 [Compound 16],–
15,0.018,COc1cc(Oc2ccc3c(c2)C2=NCCN2C=N3)cnc1OCc1ccc(C2CC2)cc1 [Compound 17],–
33,0.005,COc1cc(Oc2ccc3ncccc3c2)cnc1OCc1ccc(C2CC2)cc1 [Compound 18],–
–,0.031,"COc1cc(Oc2ccc3ncc(C)c(=O)n3c2)cnc1OCc1ccc(Cl)cc1 [Compound 19, 7-((6-((4-chlorobenzyl)oxy)-S-methoxypyridin-3-yl)oxy)-3-methyl-4H-pyrido[1,2-a]pyrimidin-4-one]",–
24,0.06,COc1ccc(COc2ncc(Oc3ccc4ncc(C)c(=O)n4c3)cc2F)cc1 [Compound 20],–
13,0.008,COc1cc(Oc2ccc3ncc(C)c(=O)n3c2)cnc1OCc1ccc(C2CC2)cc1 [Compound 21],–
12,0.009,COc1cc(Oc2ccc3ncc(N)c(=O)n3c2)cnc1OCc1ccc(C2CC2)cc1 [Compound 22],–
5,0.129,COc1cc(Oc2ccc3ncc(C)c(=O)n3c2)cnc1OCc1ccc(-n2cccn2)cc1 [Compound 23],–
3,0.034,COc1cc(Oc2ccc3ncc(N)c(=O)n3c2)cnc1OCc1ccc(-n2cccn2)cc1 [Compound 24],–
8,0.004,COc1cc(Oc2ccc3nccc(=O)n3c2)cnc1OCc1ccc(C2CC2)cc1 [Compound 25],–
6,0.108,COc1cc(Oc2ccc3ncc(C)c(=O)n3c2)cnc1OCc1cccc(Cl)c1 [Compound 26],–
16,0.045,COc1cc(Oc2ccc3ncc(C)c(=O)n3c2)cnc1OCc1ccc(C(C)(C)O)cc1 [Compound 27],–
70,–,COc1cc(Oc2ccc3ncc(C)c(=O)n3c2)cnc1OCc1ccc(C(C)(C)C#N)cc1 [Compound 28],–
6,0.023,COc1ccc(COc2ncc(Oc3ccc4ncc(C)c(=O)n4c3)cn2)cc1 [Compound 29],–
460,–,COc1ccc(COc2ncc(Oc3ccc4ncc(C)c(=O)n4c3)cc2C#N)cc1 [Compound 30],–
150,–,COc1ccc(COc2ncc(Oc3ccc4ncc(N)c(=O)n4c3)cc2C)cc1 [Compound 33],–
499,–,COc1ccc(COc2ncc(Oc3ccc4ncc(C)c(=O)n4c3)cc2C)cc1 [Compound 34],–
80,–,COc1ccc([C@H]2COc3cc(Oc4ccc5nccc(=O)n5c4)cnc3O2)nc1 [Compound 77],–

SMILES,IC50 [1] [nM],"IC50 [2, 3] [µM]",IC50 ([2]; IC50 (μM)) [µM]
"COc1ccc(COc2ccc(Oc3ccc4ncc(C)c(=O)n4c3)cn2)cc1 [Compound 1, 7-((6-((4-methoxybenzyl)oxy)pyridin-3-yl)oxy)-3-methyl-4H-pyrido[1,2-a]pyrimidin-4-one]",10,–,0.052
